The values below come from ChEMBL document CHEMBL3045307, “Synthesis, characterization, and urease inhibition of 5-substituted-8-methyl-2H-pyrido[1,2-a]pyrimidine-2,4(3H)-diones” (Med Chem Res, 2012).

Chain of Urease (Canavalia ensiformis) (P07374 whole entry, looked up): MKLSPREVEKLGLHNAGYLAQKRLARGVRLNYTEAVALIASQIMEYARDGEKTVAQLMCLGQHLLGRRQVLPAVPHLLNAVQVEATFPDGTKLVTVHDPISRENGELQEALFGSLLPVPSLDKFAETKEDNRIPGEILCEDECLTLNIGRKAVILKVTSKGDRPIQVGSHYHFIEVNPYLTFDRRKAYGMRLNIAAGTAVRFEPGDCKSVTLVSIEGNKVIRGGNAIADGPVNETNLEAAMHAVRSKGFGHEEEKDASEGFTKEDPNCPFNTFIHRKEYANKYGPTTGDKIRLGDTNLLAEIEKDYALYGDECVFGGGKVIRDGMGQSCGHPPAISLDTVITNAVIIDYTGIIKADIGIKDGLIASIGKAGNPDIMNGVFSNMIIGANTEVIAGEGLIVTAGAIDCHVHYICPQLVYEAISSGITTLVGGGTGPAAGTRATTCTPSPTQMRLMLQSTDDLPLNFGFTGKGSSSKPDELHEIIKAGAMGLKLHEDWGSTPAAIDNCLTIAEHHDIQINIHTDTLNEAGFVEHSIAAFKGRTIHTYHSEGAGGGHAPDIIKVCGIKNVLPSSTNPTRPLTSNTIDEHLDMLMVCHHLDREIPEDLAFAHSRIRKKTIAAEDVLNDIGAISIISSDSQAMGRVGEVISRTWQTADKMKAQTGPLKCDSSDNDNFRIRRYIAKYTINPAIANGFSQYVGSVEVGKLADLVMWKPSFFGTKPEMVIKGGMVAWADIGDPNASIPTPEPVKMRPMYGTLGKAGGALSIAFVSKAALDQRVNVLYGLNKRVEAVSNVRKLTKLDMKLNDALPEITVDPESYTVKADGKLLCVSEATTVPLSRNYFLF

One test addresses Urease (Canavalia ensiformis) (UniProt P07374). Briefly: Inhibition of Canavalia ensiformis (jack bean) urease assessed as ammonia production using urea as substrate at 1 uM after 15 min by indophenol method.
The inhibition is the drop in the measured response relative to a control, in per cent. With `CC1=CC2=NC(=O)/C(=C\NNC(=O)c3ccc(Br)cc3)C(=O)N2C=C1`, the inhibition turned out to be 3%.
Still for that read-out and setting: as for `CC1=CC2=NC(=O)/C(=C\Nc3ccc([N+](=O)[O-])cn3)C(=O)N2C=C1`, the figure is 23%.
On the same count and under the same terms, as for `CC(=O)c1ccccc1N/C=C1\C(=O)N=C2C=C(C)C=CN2C1=O`, the figure is 32%; as for `CC1=CC2=NC(=O)/C(=C\Nc3c(C)cc(C)cc3C)C(=O)N2C=C1`, -1%.
On the same count and under the same terms, as for `CC(=O)c1cccc(N/C=C2\C(=O)N=C3C=C(C)C=CN3C2=O)c1`, the figure is 8%; as for `CC1=CC2=NC(=O)/C(=C\NNC(=O)c3ccccc3)C(=O)N2C=C1`, 6%; as for `CC1=CC2=NC(=O)/C(=C\NNC(=O)c3ccc(Cl)cc3)C(=O)N2C=C1`, 6%.
Regarding `CC1=CC2=NC(=O)/C(=C\NNC(=O)c3ccc(O)cc3)C(=O)N2C=C1`, the inhibition came out at 7%.
The same measure, in the same setting: as for `CC1=CC2=NC(=O)/C(=C\Nc3cc(C)ccn3)C(=O)N2C=C1`, the figure is 16%.
Same read-out and setting: as for `CC(=O)c1ccc(N/C=C2\C(=O)N=C3C=C(C)C=CN3C2=O)cc1`, the figure is 1%; as for `CC1=CC2=NC(=O)/C(=C\NNC(=O)c3ccc([N+](=O)[O-])cc3)C(=O)N2C=C1`, 54%; as for `CC1=CC2=NC(=O)/C(=C\Nc3ccccc3S)C(=O)N2C=C1`, 60%.
Still for that read-out and setting: next, `CC1=CC2=NC(=O)/C(=C\Nc3ccc(C)cn3)C(=O)N2C=C1`: 24%.
For `CC1=CC2=NC(=O)CC(=O)N2C=C1`, the inhibition was 12%.
The same measure, in the same setting: as for `CC1=CC2=NC(=O)/C(=C\Nc3ccc(F)cc3)C(=O)N2C=C1`, the figure is 14%; as for `NC(N)=S`, 15%; as for `CC1=CC2=NC(=O)/C(=C\Nc3ccccc3F)C(=O)N2C=C1`, 26%.

Another test has the same target. Briefly: Inhibition of Canavalia ensiformis (jack bean) urease assessed as ammonia production using urea as substrate at 0.1 uM after 15 min by indophenol method.
Consider `CC1=CC2=NC(=O)/C(=C\NNC(=O)c3ccc(Br)cc3)C(=O)N2C=C1`, for which the inhibition is -2%.
Turning to `CC1=CC2=NC(=O)/C(=C\Nc3ccc([N+](=O)[O-])cn3)C(=O)N2C=C1`, the inhibition turned out to be 6%.
For `CC(=O)c1ccccc1N/C=C1\C(=O)N=C2C=C(C)C=CN2C1=O`, the inhibition is 19%.
For the compound `CC1=CC2=NC(=O)/C(=C\Nc3c(C)cc(C)cc3C)C(=O)N2C=C1`, the inhibition is -6%.
Still for that read-out and setting: as for `CC(=O)c1cccc(N/C=C2\C(=O)N=C3C=C(C)C=CN3C2=O)c1`, the figure is 3%; as for `CC1=CC2=NC(=O)/C(=C\NNC(=O)c3ccccc3)C(=O)N2C=C1`, 1%; as for `CC1=CC2=NC(=O)/C(=C\NNC(=O)c3ccc(Cl)cc3)C(=O)N2C=C1`, -2%.
Same read-out and setting: next, `CC1=CC2=NC(=O)/C(=C\NNC(=O)c3ccc(O)cc3)C(=O)N2C=C1`: -1%; `CC1=CC2=NC(=O)/C(=C\Nc3cc(C)ccn3)C(=O)N2C=C1`: 6%; `CC(=O)c1ccc(N/C=C2\C(=O)N=C3C=C(C)C=CN3C2=O)cc1`: -2%.
Still for that read-out and setting: next, `CC1=CC2=NC(=O)/C(=C\NNC(=O)c3ccc([N+](=O)[O-])cc3)C(=O)N2C=C1`: 21%.
In the case of `CC1=CC2=NC(=O)/C(=C\Nc3ccccc3S)C(=O)N2C=C1`, the inhibition was 28%.
Same read-out and setting: next, `CC1=CC2=NC(=O)/C(=C\Nc3ccc(C)cn3)C(=O)N2C=C1`: 11%; `CC1=CC2=NC(=O)CC(=O)N2C=C1`: 6%; `CC1=CC2=NC(=O)/C(=C\Nc3ccc(F)cc3)C(=O)N2C=C1`: 6%.
Same read-out and setting: next, `NC(N)=S`: 8%.
On the same count and under the same terms, as for `CC1=CC2=NC(=O)/C(=C\Nc3ccccc3F)C(=O)N2C=C1`, the figure is 10%.

For a further test the target is unchanged. The experiment in a line: Inhibition of Canavalia ensiformis (jack bean) urease assessed as ammonia production using urea as substrate at 10 uM after 15 min by indophenol method.
For `CC1=CC2=NC(=O)/C(=C\NNC(=O)c3ccc(Br)cc3)C(=O)N2C=C1`, the inhibition stood at 23%.
With `CC1=CC2=NC(=O)/C(=C\Nc3ccc([N+](=O)[O-])cn3)C(=O)N2C=C1`, the inhibition was found to be 36%.
`CC(=O)c1ccccc1N/C=C1\C(=O)N=C2C=C(C)C=CN2C1=O`: the inhibition amounted to 54%.
Consider `CC1=CC2=NC(=O)/C(=C\Nc3c(C)cc(C)cc3C)C(=O)N2C=C1`, for which the inhibition was -8%.
`CC(=O)c1cccc(N/C=C2\C(=O)N=C3C=C(C)C=CN3C2=O)c1`: the inhibition is 28%.
As for `CC1=CC2=NC(=O)/C(=C\NNC(=O)c3ccccc3)C(=O)N2C=C1`, the inhibition was 13%.
On the same count and under the same terms, as for `CC1=CC2=NC(=O)/C(=C\NNC(=O)c3ccc(Cl)cc3)C(=O)N2C=C1`, the figure is 14%.
Still for that read-out and setting: as for `CC1=CC2=NC(=O)/C(=C\NNC(=O)c3ccc(O)cc3)C(=O)N2C=C1`, the figure is 22%.
For `CC1=CC2=NC(=O)/C(=C\Nc3cc(C)ccn3)C(=O)N2C=C1`, the inhibition came out at 20%.
Still for that read-out and setting: as for `CC(=O)c1ccc(N/C=C2\C(=O)N=C3C=C(C)C=CN3C2=O)cc1`, the figure is 5%.
Same read-out and setting: next, `CC1=CC2=NC(=O)/C(=C\Nc3cccc(F)c3)C(=O)N2C=C1`: 3%; `CC1=CC2=NC(=O)/C(=C\NNC(=O)c3ccc([N+](=O)[O-])cc3)C(=O)N2C=C1`: 60%; `CC1=CC2=NC(=O)/C(=C\Nc3ccccc3S)C(=O)N2C=C1`: 73%.
Same read-out and setting: next, `CC1=CC2=NC(=O)/C(=C\Nc3ccc(C)cn3)C(=O)N2C=C1`: 48%.
Turning to `CC1=CC2=NC(=O)CC(=O)N2C=C1`, the inhibition was determined as 26%.
Same read-out and setting: as for `CC1=CC2=NC(=O)/C(=C\Nc3ccc(F)cc3)C(=O)N2C=C1`, the figure is 21%; as for `NC(N)=S`, 21%; as for `CC1=CC2=NC(=O)/C(=C\Nc3ccccc3F)C(=O)N2C=C1`, 44%.

Another test has the same target. The experiment in a line: Inhibition of Canavalia ensiformis (jack bean) urease assessed as ammonia production using urea as substrate at 0.01 uM after 15 min by indophenol method.
With `CC1=CC2=NC(=O)/C(=C\NNC(=O)c3ccc(Br)cc3)C(=O)N2C=C1`, the inhibition is -8%.
Same read-out and setting: next, `CC1=CC2=NC(=O)/C(=C\Nc3ccc([N+](=O)[O-])cn3)C(=O)N2C=C1`: 3%; `CC(=O)c1ccccc1N/C=C1\C(=O)N=C2C=C(C)C=CN2C1=O`: 11%; `CC(=O)c1cccc(N/C=C2\C(=O)N=C3C=C(C)C=CN3C2=O)c1`: -1%.
On the same count and under the same terms, as for `CC1=CC2=NC(=O)/C(=C\NNC(=O)c3ccccc3)C(=O)N2C=C1`, the figure is -1%; as for `CC1=CC2=NC(=O)/C(=C\NNC(=O)c3ccc(Cl)cc3)C(=O)N2C=C1`, -4%.
Still for that read-out and setting: as for `CC1=CC2=NC(=O)/C(=C\NNC(=O)c3ccc(O)cc3)C(=O)N2C=C1`, the figure is -5%; as for `CC1=CC2=NC(=O)/C(=C\Nc3cc(C)ccn3)C(=O)N2C=C1`, 1%; as for `CC(=O)c1ccc(N/C=C2\C(=O)N=C3C=C(C)C=CN3C2=O)cc1`, -3%.
`CC1=CC2=NC(=O)/C(=C\NNC(=O)c3ccc([N+](=O)[O-])cc3)C(=O)N2C=C1`: the inhibition came to 6%.
As for `CC1=CC2=NC(=O)/C(=C\Nc3ccccc3S)C(=O)N2C=C1`, the inhibition is 22%.
Consider `CC1=CC2=NC(=O)/C(=C\Nc3ccc(C)cn3)C(=O)N2C=C1`, for which the inhibition is 3%.
`CC1=CC2=NC(=O)CC(=O)N2C=C1`: the inhibition was found to be 1%.
The same measure, in the same setting: as for `CC1=CC2=NC(=O)/C(=C\Nc3ccc(F)cc3)C(=O)N2C=C1`, the figure is 1%; as for `NC(N)=S`, 8%.
Same read-out and setting: next, `CC1=CC2=NC(=O)/C(=C\Nc3ccccc3F)C(=O)N2C=C1`: 3%.

For the next test the target is unchanged. The experiment in a line: Inhibition of Canavalia ensiformis (jack bean) urease assessed as ammonia production using urea as substrate at 100 uM after 15 min by indophenol method.
`CC1=CC2=NC(=O)/C(=C\NNC(=O)c3ccc(Br)cc3)C(=O)N2C=C1`: the inhibition is 57%.
Still for that read-out and setting: as for `CC1=CC2=NC(=O)/C(=C\Nc3ccc([N+](=O)[O-])cn3)C(=O)N2C=C1`, the figure is 48%; as for `CC(=O)c1ccccc1N/C=C1\C(=O)N=C2C=C(C)C=CN2C1=O`, 69%; as for `CC1=CC2=NC(=O)/C(=C\Nc3c(C)cc(C)cc3C)C(=O)N2C=C1`, 0.2%.
The same measure, in the same setting: as for `CC(=O)c1cccc(N/C=C2\C(=O)N=C3C=C(C)C=CN3C2=O)c1`, the figure is 45%.
As to `CC1=CC2=NC(=O)/C(=C\NNC(=O)c3ccccc3)C(=O)N2C=C1`, the inhibition came out at 26%.
Still for that read-out and setting: as for `CC1=CC2=NC(=O)/C(=C\NNC(=O)c3ccc(Cl)cc3)C(=O)N2C=C1`, the figure is 43%; as for `CC1=CC2=NC(=O)/C(=C\NNC(=O)c3ccc(O)cc3)C(=O)N2C=C1`, 39%; as for `CC1=CC2=NC(=O)/C(=C\Nc3cc(C)ccn3)C(=O)N2C=C1`, 33%.
On to `CC(=O)c1ccc(N/C=C2\C(=O)N=C3C=C(C)C=CN3C2=O)cc1`, for which the inhibition was found to be 18%.
The same measure, in the same setting: as for `CC1=CC2=NC(=O)/C(=C\Nc3cccc(F)c3)C(=O)N2C=C1`, the figure is 28%; as for `CC1=CC2=NC(=O)/C(=C\NNC(=O)c3ccc([N+](=O)[O-])cc3)C(=O)N2C=C1`, 87%; as for `CC1=CC2=NC(=O)/C(=C\Nc3ccccc3S)C(=O)N2C=C1`, 97%.
Still for that read-out and setting: as for `CC1=CC2=NC(=O)/C(=C\Nc3ccc(C)cn3)C(=O)N2C=C1`, the figure is 57%.
On the same count and under the same terms, as for `CC1=CC2=NC(=O)CC(=O)N2C=C1`, the figure is 39%; as for `CC1=CC2=NC(=O)/C(=C\Nc3ccc(F)cc3)C(=O)N2C=C1`, 35%.
Turning to `NC(N)=S`, the inhibition came to 94%.
In the case of `CC1=CC2=NC(=O)/C(=C\Nc3ccccc3F)C(=O)N2C=C1`, the inhibition stood at 57%.
